Reference: patent US20190249215A1, “Three-Dimensional Cell-Derived Extracellular Matrix/Gel Systems” (Institute For Cancer Research d/b/a The Research Institute …, priority 2018, published 2019)

Columns and labels:
[1] = system: RFP-expressing KRAS cell spheroids; assay: Spheroid spreading assay; type: cell-based, human; conditions: KRAS spheroids within CAF-CDMs produced onto patho stiffness gels; 20 μM U0126 overnight
Procedure: Red fluorescence protein (RFP)-expressing KRAS cells generated in our laboratory were trypsinized and suspended in spheroid formation media (Irvine Scientific, Santa Ana, Calif., Catalog ID: 91130) and allowed to incubate overnight. Thirty μl drops containing 2.5×10^3 cells were carefully placed on a lid of a sterile petri dish. The dish was filled with 5 mL media and the lid with the “hanging drops” was carefully placed, drops face down, and incubated overnight. Spheroids were removed from the lids, one by one, placed onto the diverse substrates or CDMs, and allowed to adhere for 2 hours. Subsequently, the spheroid formation media was diluted with regular pancreatic epithelial growth media (see above). Following a 48-hour incubation, cell spreading was visualized using an inverted fluorescence microscope equipped with epifluorescent image acquisition capabilities. Data were normalized to the initial size of each spheroid at time 0 hour. When indicated, spheroids were treated overnight with 20 μM of the MEK1/2 inhibitor U0126 from Calbiochem or DMSO, while siRNA transfection. The images were processed using MetaMorph 7.8.1.0 software (Molecular Devices, Downingtown, Pa.). A minimum of 5 spheres per condition were analyzed in at least three independent experiments.

[2] = system: pERK1/2; conditions: KRAS cells within CAF-CDMs produced onto patho stiffness gels; 20 μM U0126 overnight; fractionated cell lysates
Procedure: (§1) At the end of the experiments, KRAS cells were lysed with cell lysis buffer from Cell Signaling Technology (Danvers, Mass.) supplemented with Pierce™ Phosphatase and protease Inhibitor Mini Tablets (Cat Nos. 88667 and 88665, respectively) from Thermo Fisher Scientific (Waltham, Mass.). Proteins were SDS-PAGE dissolved and transferred to PVDF membranes. Blots were incubated with the following primary antibodies: Rabbit anti-human Phospho-p44/42 ERK1/2 (Thr^202/Tyr^204)(Cat No. 4370) and rabbit anti-human total-p44/42 ERK1/2 (Cat No. 9102) obtained from Cell Signaling Technology (Danvers, Mass.). Anti-phospho-p90RSK1 (Ser^380) (Cat No. 04-418) and anti-human glyceraldehyde 3-phosphate dehydrogenase (GAPDH) (Cat No. MAB374) obtained from Millipore (Billerica, Mass.). Horseradish peroxidase-conjugated, anti-species matched, secondary antibodies were obtained from Sigma Aldrich (St. Louis, Mo.). Protein bands were visualized using the Protein Simple FluorChemE System, (San Jose, Calif.). Nuclear levels of pERK1/2 were assessed using the Subcellular Protein Fractionation Kit (Thermo Scientific, Waltham, Mass.). Isolation of nuclear versus whole cell fractions was carried out according to the manufacturer's instructions.

[3] = system: phospho-p90RSK; conditions: KRAS cells within CAF-CDMs produced onto patho gels; 20 μM U0126 overnight
Procedure: as §1

phosphorylation levels of p90 ribosomal S6 kinase (pho-p90RSK) [3]: downregulated
SMILES: N#CC(=C(N)Sc1ccccc1N)C(C#N)=C(N)Sc1ccccc1N [U0126, 1,4-diamino-2,3-dicyano-1,4-bis[2-aminophenylthio] butadiene]
KRAS spheroid area spread [1]: significant reduction in KRAS spheroid spread | nuclear levels of pERK1/2 [2]: significant loss of pERK1/2 at nuclear locations
